From patent US20220202799A1, “PHARMACEUTICAL FORMULATIONS CONTAINING P2Y14 ANTAGONISTS” (priority 2019, published 2022)
“And” between values parts separate entries of the source, which are not always exact repeats. Equal values may be shown once. Read-outs that look alike come from different tables or passages of the source.

Test: Plasma concentrations and TK parameters, 72-hour continuous intravenous infusion
Assay type: in vivo, Sprague-Dawley rats
Settings: for Accumulation ratio (C72h/C24h) / Css / Female/Male C72h / Accumulation ratio / half-life: 72 hours of intravenous infusion; for half-life / concentration at 24 h / concentration at 48 h / concentration at 72 h / concentration at 78 h / concentration at 84 h / concentration at 96 h: Sprague-Dawley, rat, plasma; for Plasma concentration, individual animal / concentration at 24 h / concentration at 48 h / concentration at 72 h / concentration at 78 h / concentration at 84 h / concentration at 96 h: female Sprague-Dawley rats; for concentration at 24 h / concentration at 48 h / concentration at 72 h / concentration at 78 h / concentration at 84 h / concentration at 96 h: female, iv
Procedure: The safety and pharmacokinetics of PPTN (KB-1801) in rats receiving continuous intravenous injections of SBECD-containing solutions were analyzed. Three cohorts of six male and six female rats each were given continuous intravenous infusion of PPTN (KB-1801) at 10 mg/kg/day, 30 mg/kg/day or 100 mg/kg/day in a dosing solution containing PPTN at 0.25 mg/mL, 0.75 mg/mL or 2.5 mg/mL and SBECD at about 3.8%. Dosing volume was 40 mIkg/day. [table]

[1] = Female, Group 16, 100 mg/kg/day

SMILES: O=C(O)c1cc(-c2ccc(C3CCNCC3)cc2)c2ccc(-c3ccc(C(F)(F)F)cc3)cc2c1 [KB-1801, 4-[4-(piperidin-4-yl)phenyl]-7-[4-(trifluoromethyl)phenyl]-2-naphthoic acid]
- Accumulation ratio (C72h/C24h) (Female, Group14, 10 mg/kg/day): 0.91
- Css (Female, Group14, 10 mg/kg/day): 606.0 ± 52.0 ng/mL
- Accumulation ratio (C72h/C24h) (Female, Group 15, 30 mg/kg/day): 0.84
- Css (Female, Group 15, 30 mg/kg/day): 2037.0 ± 433.7 ng/mL
- Accumulation ratio (C72h/C24h) [1]: 0.88
- Css [1]: 6595.6 ± 696.2 ng/mL
- Female/Male C72h (Group14, 10 mg/kg/day): 1.05
- Female/Male C72h (Group 15, 30 mg/kg/day): 1.18
- Female/Male C72h (Group 16, 100 mg/kg/day): 0.70
- Accumulation ratio (Male, Group14, 10 mg/kg/day): 0.74
- Css (Male, Group14, 10 mg/kg/day): 636.4 ± 96.8 ng/mL
- Accumulation ratio (Male, Group 15, 30 mg/kg/day): 0.86
- Css (Male, Group 15, 30 mg/kg/day): 1974.4 ± 240.2 ng/mL
- Accumulation ratio (Male, Group 16, 100 mg/kg/day): 1.03
- Css (Male, Group 16, 100 mg/kg/day): 7774.6 ± 1241.3 ng/mL
- half-life (Female, Group14, 10 mg/kg/day): 6.67 ± 1.21 h
- half-life (Female, Group 15, 30 mg/kg/day): 7.06 ± 0.93 h
- half-life [1]: 6.64 ± 0.36 h
- half-life (Male, Group14, 10 mg/kg/day): 7.91 ± 1.06 h
- half-life (Male, Group 15, 30 mg/kg/day): 8.29 ± 0.93 h
- half-life (Male, Group 16, 100 mg/kg/day): 8.83 ± 3.33 h
- Plasma concentration, individual animal (72-hour intravenous infusion at 10 mg/kg/day, time 24 h, 10 mg/kg/day): 784.2 ng/mL and 685.7 ng/mL
- Plasma concentration, individual animal (72-hour intravenous infusion at 10 mg/kg/day, time 48 h, 10 mg/kg/day): 650.5 ng/mL and 588.8 ng/mL
- Plasma concentration, individual animal (72-hour intravenous infusion at 10 mg/kg/day, time 72 h, 10 mg/kg/day): 756.4 ng/mL and 602.0 ng/mL
- Plasma concentration, individual animal (72-hour intravenous infusion at 10 mg/kg/day, time 78 h, 10 mg/kg/day): 131.4 ng/mL and 160.1 ng/mL
- Plasma concentration, individual animal (72-hour intravenous infusion at 10 mg/kg/day, time 84 h, 10 mg/kg/day): 103.5 ng/mL and 64.3 ng/mL
- Plasma concentration, individual animal (72-hour intravenous infusion at 10 mg/kg/day, time 96 h, 10 mg/kg/day): 22.9 ng/mL and 15.3 ng/mL
- Plasma concentration, individual animal (72-hour intravenous infusion at 30 mg/kg/day, time 24 h, 30 mg/kg/day): 2027.1 ng/mL and 2581.5 ng/mL
- Plasma concentration, individual animal (72-hour intravenous infusion at 30 mg/kg/day, time 48 h, 30 mg/kg/day): 1661.0 ng/mL and 1763.6 ng/mL
- Plasma concentration, individual animal (72-hour intravenous infusion at 30 mg/kg/day, time 72 h, 30 mg/kg/day): 1397.7 ng/mL and 2300.3 ng/mL
- Plasma concentration, individual animal (72-hour intravenous infusion at 30 mg/kg/day, time 78 h, 30 mg/kg/day): 449.3 ng/mL and 585.0 ng/mL
- Plasma concentration, individual animal (72-hour intravenous infusion at 30 mg/kg/day, time 84 h, 30 mg/kg/day): 453.1 ng/mL and 160.2 ng/mL and 306.2 ng/mL
- Plasma concentration, individual animal (72-hour intravenous infusion at 30 mg/kg/day, time 96 h, 30 mg/kg/day): 75.6 ng/mL and 115.3 ng/mL
- Plasma concentration, individual animal (72-hour intravenous infusion at 100 mg/kg/day, time 24 h, 100 mg/kg/day): 6709.0 ng/mL and 8238.2 ng/mL
- Plasma concentration, individual animal (72-hour intravenous infusion at 100 mg/kg/day, time 48 h, 100 mg/kg/day): 5872.0 ng/mL and 8226.5 ng/mL
- Plasma concentration, individual animal (72-hour intravenous infusion at 100 mg/kg/day, time 72 h, 100 mg/kg/day): 6680.1 ng/mL and 6734.5 ng/mL
- Plasma concentration, individual animal (72-hour intravenous infusion at 100 mg/kg/day, time 78 h, 100 mg/kg/day): 1454.4 ng/mL and 2119.8 ng/mL
- Plasma concentration, individual animal (72-hour intravenous infusion at 100 mg/kg/day, time 84 h, 100 mg/kg/day): 1075.5 ng/mL and 1046.1 ng/mL
- Plasma concentration, individual animal (72-hour intravenous infusion at 100 mg/kg/day, time 96 h, 100 mg/kg/day): 211.8 ng/mL and 342.6 ng/mL
- concentration at 24 h (10 mg/kg/day, 72-hour intravenous infusion at 10 mg/kg/day, time 24 h, read-out: Plasma concentration, Mean): 688 ng/mL
- concentration at 24 h (10 mg/kg/day, 72-hour intravenous infusion at 10 mg/kg/day, time 24 h, read-out: Plasma concentration, individual animal): 595 ng/mL
- concentration at 48 h (10 mg/kg/day, 72-hour intravenous infusion at 10 mg/kg/day, time 48 h, read-out: Plasma concentration, Mean): 654 ng/mL
- concentration at 48 h (10 mg/kg/day, 72-hour intravenous infusion at 10 mg/kg/day, time 48 h, read-out: Plasma concentration, individual animal): 722 ng/mL
- concentration at 72 h (10 mg/kg/day, 72-hour intravenous infusion at 10 mg/kg/day, time 72 h, read-out: Plasma concentration, Mean): 624 ng/mL
- concentration at 72 h (10 mg/kg/day, 72-hour intravenous infusion at 10 mg/kg/day, time 72 h, read-out: Plasma concentration, individual animal): 514 ng/mL
- concentration at 78 h (10 mg/kg/day, 72-hour intravenous infusion at 10 mg/kg/day, time 78 h, read-out: Plasma concentration, Mean): 147 ng/mL
- concentration at 78 h (10 mg/kg/day, 72-hour intravenous infusion at 10 mg/kg/day, time 78 h, read-out: Plasma concentration, individual animal): 150 ng/mL
- concentration at 84 h (10 mg/kg/day, 72-hour intravenous infusion at 10 mg/kg/day, time 84 h, read-out: Plasma concentration, Mean): 80.9 ng/mL
- concentration at 84 h (10 mg/kg/day, 72-hour intravenous infusion at 10 mg/kg/day, time 84 h, read-out: Plasma concentration, individual animal): 74.8 ng/mL
- concentration at 96 h (10 mg/kg/day, 72-hour intravenous infusion at 10 mg/kg/day, time 96 h, read-out: Plasma concentration, Mean): 22.5 ng/mL
- concentration at 96 h (10 mg/kg/day, 72-hour intravenous infusion at 10 mg/kg/day, time 96 h, read-out: Plasma concentration, individual animal): 29.3 ng/mL
- concentration at 24 h (30 mg/kg/day, 72-hour intravenous infusion at 30 mg/kg/day, time 24 h, read-out: Plasma concentration, Mean): 2340 ng/mL
- concentration at 24 h (30 mg/kg/day, 72-hour intravenous infusion at 30 mg/kg/day, time 24 h, read-out: Plasma concentration, individual animal): 2420 ng/mL
- concentration at 48 h (30 mg/kg/day, 72-hour intravenous infusion at 30 mg/kg/day, time 48 h, read-out: Plasma concentration, Mean): 2210 ng/mL
- concentration at 48 h (30 mg/kg/day, 72-hour intravenous infusion at 30 mg/kg/day, time 48 h, read-out: Plasma concentration, individual animal): 3220 ng/mL
- concentration at 72 h (30 mg/kg/day, 72-hour intravenous infusion at 30 mg/kg/day, time 72 h, read-out: Plasma concentration, Mean): 1970 ng/mL
- concentration at 72 h (30 mg/kg/day, 72-hour intravenous infusion at 30 mg/kg/day, time 72 h, read-out: Plasma concentration, individual animal): 2210 ng/mL
- concentration at 78 h (30 mg/kg/day, 72-hour intravenous infusion at 30 mg/kg/day, time 78 h, read-out: Plasma concentration, Mean): 544 ng/mL
- concentration at 78 h (30 mg/kg/day, 72-hour intravenous infusion at 30 mg/kg/day, time 78 h, read-out: Plasma concentration, individual animal): 597 ng/mL
- concentration at 84 h (30 mg/kg/day, 72-hour intravenous infusion at 30 mg/kg/day, time 84 h, read-out: Plasma concentration, Mean): 306 ng/mL
- concentration at 96 h (30 mg/kg/day, 72-hour intravenous infusion at 30 mg/kg/day, time 96 h, read-out: Plasma concentration, Mean): 90.8 ng/mL
- concentration at 96 h (30 mg/kg/day, 72-hour intravenous infusion at 30 mg/kg/day, time 96 h, read-out: Plasma concentration, individual animal): 81.6 ng/mL
- concentration at 24 h (100 mg/kg/day, 72-hour intravenous infusion at 100 mg/kg/day, time 24 h, read-out: Plasma concentration, Mean): 7740 ng/mL
- concentration at 24 h (100 mg/kg/day, 72-hour intravenous infusion at 100 mg/kg/day, time 24 h, read-out: Plasma concentration, individual animal): 8270 ng/mL
- concentration at 48 h (100 mg/kg/day, 72-hour intravenous infusion at 100 mg/kg/day, time 48 h, read-out: Plasma concentration, Mean): 6720 ng/mL
